Assay [1] relates to E. coli transketolase A (TktA). As to conditions: ref. [3], cited from earlier work.
The test system of assay [2] is E. coli fructose-6-phosphate aldolase (F6P aldolase, fsa), wild type. As to conditions: cited from earlier work; for Km: purified enzyme.
The subject of assay [3] is E. coli fructose-6-phosphate aldolase (F6P aldolase, fsa) variant A129S. The following applies: cited from earlier work.
The subject of assay [4] is dihydroxyacetone synthase from Mycobacter sp. strain JC1 DSM 3803. As to conditions: cited from earlier work.
In assay [5] the test system is B. methanolicus transketolase. As to conditions: ref. [2] Markert et al., cited from earlier work.
Assay [6] concerns the target T1, Bacillus methanolicus PB1 GapN (NADP-dependent glyceraldehyde-3-phosphate dehydrogenase), cds 10662A (Bacillus methanolicus, UniProt I3E1I1).
T1 sequence (I3E1I1 1-481): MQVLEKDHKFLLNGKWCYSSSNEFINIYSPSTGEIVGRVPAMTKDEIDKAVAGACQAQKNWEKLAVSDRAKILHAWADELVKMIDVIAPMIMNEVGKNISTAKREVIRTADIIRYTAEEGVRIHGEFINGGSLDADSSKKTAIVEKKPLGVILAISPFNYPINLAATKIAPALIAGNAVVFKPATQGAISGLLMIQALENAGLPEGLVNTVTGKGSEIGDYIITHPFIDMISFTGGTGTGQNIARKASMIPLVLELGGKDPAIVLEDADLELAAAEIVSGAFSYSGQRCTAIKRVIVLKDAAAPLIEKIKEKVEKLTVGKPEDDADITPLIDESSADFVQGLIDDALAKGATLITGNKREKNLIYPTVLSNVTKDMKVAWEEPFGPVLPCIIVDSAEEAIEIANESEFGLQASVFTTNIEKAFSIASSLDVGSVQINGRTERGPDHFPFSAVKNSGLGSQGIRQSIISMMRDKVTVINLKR
Put plainly: GapN vs. GapA kinetic comparison: catalytic constants of BM PB1 GapN (cds 10662A, Table 18). It is filed as biochemical. The following applies: fixed NADP; G3P varied.

Assay [7] addresses T2, Bacillus methanolicus MGA3 GapN (NADP-dependent glyceraldehyde-3-phosphate dehydrogenase), cds 10663A (Bacillus methanolicus, UniProt I3EBG2).
T2 sequence (I3EBG2 1-481): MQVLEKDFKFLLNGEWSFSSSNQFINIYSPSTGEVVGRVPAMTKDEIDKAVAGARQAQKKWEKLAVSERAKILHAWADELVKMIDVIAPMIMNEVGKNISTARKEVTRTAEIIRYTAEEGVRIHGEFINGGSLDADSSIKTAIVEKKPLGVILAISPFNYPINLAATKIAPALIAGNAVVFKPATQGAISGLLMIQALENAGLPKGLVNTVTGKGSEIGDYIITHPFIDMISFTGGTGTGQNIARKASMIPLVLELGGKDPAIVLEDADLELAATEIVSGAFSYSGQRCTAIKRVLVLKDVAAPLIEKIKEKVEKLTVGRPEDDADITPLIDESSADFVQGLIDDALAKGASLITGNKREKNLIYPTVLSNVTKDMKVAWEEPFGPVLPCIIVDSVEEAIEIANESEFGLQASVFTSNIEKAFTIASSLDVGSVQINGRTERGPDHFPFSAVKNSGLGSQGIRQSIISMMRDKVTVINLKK
Put plainly: GapN vs. GapA kinetic comparison: catalytic constants of BM MGA3 GapN (cds 10663A, Table 18). The class given is biochemical. As to conditions: fixed NADP; G3P varied.

Assay [8] relates to E. coli ribose 5-phosphate isomerase A (RpiA). The following applies: read-out: Michaelis constant for ribose 5-phosphate; cited from earlier work.
Assay [9] has as its system E. coli ribose 5-phosphate isomerase B (RpiB). As to conditions: read-out: Michaelis constant for ribose 5-phosphate; cited from earlier work.
Setting [10] is: reaction products, read-out: KM (products).
The mark [11] stands for this setting: reaction substrates, read-out: KM (substrates).
Setting [12] is: fold reduction compared to wild type enzyme.

Like-named read-outs stand apart in the source and are kept apart here.

As for `O=C[C@H](O)[C@H](O)COP(=O)(O)O`, the Km in [1] (setting [10]) was 90 µM.
Turning to `O=C(CO)CO` [dihydroxyacetone], the Km in assay [2] is 35000 µM. Moreover, the “improved reactivity towards DHA in terms of Kcat/Km” value in assay [3] (fold improvement) is “over 17 fold”.
Regarding `C=O` [formaldehyde], in assay [4] (read-out: Km for formaldehyde), the Km was 1860 µM.
Regarding `O=P(O)(O)OC[C@H]1OC(O)(CO)[C@@H](O)[C@@H]1O` (stereo partly shown) [fructose 6-phosphate], in assay [2] (30 degrees C., pH 8.5, 50 mm glycylglycine buffer), the “Vmax for fructose 6-phosphate cleavage” value is 7 units/mg of protein. The Km in assay [2] was 9000 µM; in assay [1] (setting [11]) it was 1100 µM; in [5] (setting [11]) it was 720 µM.
As to `O=C[C@H](O)COP(=O)(O)O` [glyceraldehyde 3-phosphate], the Km was 1100 ± 300 µM in [6]; 1600 ± 100 µM in assay [7]; 800 µM in assay [2]; 2100 µM in assay [1] (setting [11]); 920 µM in assay [5] (setting [11]). The “kcat (G3P)” value in assay [6] was found to be 8.9 ± 0.8 S^−1; in assay [7], 9.5 ± 0.8 S^−1.
Consider `O=CCO` [glycoaldehyde], for which, in assay [3] (setting [12]), the “reduced affinity for glycoaldehyde” value was “more than 3 fold”.
For `CC(=O)CO` [hydroxyacetone], the “reduced catalytic efficiency on hydroxyacetone” value in assay [3] (setting [12]) was “more than 3 fold”.
As for `O=P(O)(O)OC[C@H]1OC(O)[C@H](O)[C@@H]1O` (stereo partly shown) [ribose 5-phosphate], the Km was 4400 µM in [8], 830 µM in assay [9], 1400 µM in assay [1] (setting [10]) and 120 µM in assay [5] (setting [10]).
On to `O=C(CO)[C@@H](O)[C@H](O)[C@H](O)[C@H](O)COP(=O)(O)O` [sedoheptulose 7-phosphate], for which the Km in assay [1] (setting [11]) was 4000 µM.
In the case of `O=C(CO)[C@@H](O)[C@H](O)COP(=O)(O)O` [xylulose 5-phosphate], the Km in assay [4] (read-out: Km for xylulose 5-phosphate) was 33.3 µM; in [1] (setting [10]), 160 µM; in assay [5] (setting [10]), 150 µM.
